The subject of one data set is HIV. The experiment in a line: cell-based HIV luciferase reporter infection assay (Screen 1). Particulars: for EC50: Human immunodeficiency virus 1, read-out: HIV Activity EC50. The procedure:
HIV therapeutic agents inhibit propagation of HIV in cells, and as such cell-based assays of HIV antiviral activity have been developed. For example, Pauwels et al, Nature (1990) 343: 470-4 describe incubating HIV infected cells with test compounds and subsequently determining cell viability via colorimetric methods, to give an EC50 for the inhibition of HIV-1 replication.
Screen 1: A high throughput cell-based HIV luciferase reporter infection assay (see He et al, Bioorg. Med. Chem. Lett. (2006) 16) that identifies inhibitors of early HIV infection events. The results are shown in Table 2 below, expressed as EC50 (μM), the molar concentration that produces 50% of the maximal possible response.

A further data set has as its target T1, HIV-1 integrase (Human immunodeficiency virus type 1 group M subtype B, UniProt P04585).
T1 construct: An HIV-1 integrase strand transfer assay
The experiment in a line: HIV-1 integrase strand transfer assay (Screen 2). The class given is biochemical. An excerpt: Screen 2: An HIV-1 integrase strand transfer assay, (see Wang et al, J. Biomol. Screen. (2005) 10: 456), that identifies anti-HIV activity due to inhibition of HIV integrase.

Data set [1] is described as follows: cytotoxicity assay (Screen 3). The class given is cell-based. Conditions: human, HE 293T cells. An excerpt:
Screen 3: A cytotoxicity assay, to determine inhibitory activity against HE 293T cells.

In a further data set the test system is WT. The experiment in a line: Inhibition of NNRTI resistant mutants, WT. Type of data set: cell-based, HIV. Conditions: Human immunodeficiency virus 1, read-out: Inhibition of NNRTI resistant mutants (EC50) WT. As to the method: (§1) Select compounds are assayed against key NNRTI resistant mutants.
In data set [2] the test system is NNRTI resistant mutant Y188L. The experiment in a line: Inhibition of NNRTI resistant mutants, Y188L. The class given is cell-based, HIV. Particulars: Human immunodeficiency virus 1, read-out: Inhibition of NNRTI resistant mutants (EC50) Y188L. The procedure: as §1
Data set [3] has as its system NNRTI resistant mutant Y181C. Kind of data set: Inhibition of NNRTI resistant mutants, Y181C. Conditions: Human immunodeficiency virus 1, read-out: Inhibition of NNRTI resistant mutants (EC50) Y181C. The class given is cell-based, HIV. The procedure:
as §1

Data set [4] concerns NNRTI resistant mutant K103N. The experiment in a line: Inhibition of NNRTI resistant mutants, K103N. The class given is cell-based, HIV. Conditions: Human immunodeficiency virus 1, read-out: Inhibition of NNRTI resistant mutants (EC50) K103N. The procedure:
as §1

In data set [5] the test system is NNRTI resistant mutant L100I. The experiment in a line: Inhibition of NNRTI resistant mutants, L100I. The class given is cell-based, HIV. Conditions: Human immunodeficiency virus 1, read-out: Inhibition of NNRTI resistant mutants (EC50) L100I. As to the method:
as §1

[6] abbreviates: strand transfer assay, read-out: Integrase Activity IC50.

Where two headings read alike, the source gives them in different places. Bounds are passed on as bounds.

We go through 23 molecules from patent US20100016379A1, “Terephthalamate Compounds and Compositions, and Their Use as HIV Integrase Inhibitors” (IRM LLC, priority 2006, published 2010).

The term EC50 denotes the concentration at which the effect is half-maximal. As usually defined, the IC50 is the concentration that inhibits the measured activity by half. A word on the CC50: it is the concentration giving 50% cytotoxicity. A higher CC50 goes with better tolerance by the cells. For the molecule `COC(=O)c1ccc(C(=O)NCc2ccccc2)c(O)c1O` [Compound 1, methyl 4-(benzylcarbamoyl)-2,3-dihydroxybenzoate], the EC50 with HIV fell in the range of 50 to 500 nM. For the same molecule, on HIV-1 integrase, the IC50 was 50 to 500 nM. In addition, the CC50 in data set [1] is > 2000 nM.

Take `O=C(NCc1ccccc1)c1cccc(O)c1O` [Compound 2, N-benzyl-2,3-dihydroxybenzamide]: the concentration for a half-maximal effect (EC50) in the data set on HIV was > 2000 nM. Moreover, in data set [1], the CC50 is > 2000 nM.

In the case of `O=C(NCc1ccccc1)c1cccc(O)c1` [Compound 3, N-benzyl-3-hydroxybenzamide], in the data set with HIV, the EC50 is > 2000 nM. Further, the CC50 in data set [1] was > 2000 nM.

Turning to `O=C(NCc1ccccc1)c1ccccc1O` [Compound 4, N-benzyl-2-hydroxybenzamide], the EC50 in the data set with HIV is > 2000 nM. In addition, in data set [1], the CC50 is > 2000 nM.

For the molecule `O=C(NCc1ccccc1)c1cccc(O)n1` [Compound 5, N-benzyl-6-hydroxypyridine-2-carboxamide], the EC50 in the data set with HIV is > 2000 nM. In data set [1], the CC50 was > 2000 nM.

With `O=C(NCc1ccccc1)c1cccnc1O` [Compound 6, N-benzyl-2-hydroxypyridine-3-carboxamide], the EC50 in the data set on HIV was > 2000 nM. Further, in data set [1], the 50% cytotoxic concentration (CC50) was > 2000 nM.

For `COC(=O)c1ccc(C(=O)NCc2ccccc2OC)c(O)c1O` [Compound 7, methyl 4-(2-methoxybenzylcarbamoyl)-2,3-dihydroxybenzoate], the EC50 was < 50 nM in the data set on HIV; < 50 nM in the data set on WT; 50 to 500 nM in data set [2]; 50 to 500 nM in data set [3]; < 50 nM in data set [4]; < 50 nM in data set [5]. Further, the IC50 on HIV-1 integrase (setting [6]) is < 50 nM. Also, the CC50 in data set [1] is 500 to 2000 nM.

For `COC(=O)c1ccc(C(=O)NCc2cccc(OC)c2)c(O)c1O` [Compound 8, methyl 4-(3-methoxybenzylcarbamoyl)-2,3-dihydroxybenzoate], the EC50 (with HIV; in the data set on WT; in data set [2]; in data set [3]; in data set [4]; in data set [5]) was 50 to 500 nM each time. Also, the half-maximal inhibitory concentration (IC50) on HIV-1 integrase (setting [6]) was < 50 nM. The half-maximal cytotoxic concentration (CC50) in data set [1] was > 2000 nM.

Take `COC(=O)c1ccc(C(=O)NCc2ccc(OC)cc2)c(O)c1O` [Compound 9, methyl 4-(4-methoxybenzylcarbamoyl)-2,3-dihydroxybenzoate]: the EC50 with HIV lay in the range of 500 to 2000 nM. The IC50 on HIV-1 integrase (setting [6]) is < 50 nM. Also, the CC50 in data set [1] was > 2000 nM.

Take `COC(=O)c1ccc(C(=O)NCc2ccccc2[N+](=O)[O-])c(O)c1O` [Compound 10, methyl 4-(2-nitrobenzylcarbamoyl)-2,3-dihydroxybenzoate]: the EC50 in the data set with HIV is 50 to 500 nM; in the data set on WT, 50 to 500 nM; in data set [2], 50 to 500 nM; in data set [3], 50 to 500 nM; in data set [4] it was < 50 nM; in data set [5], < 50 nM. Also, the IC50 on HIV-1 integrase (setting [6]) is < 50 nM. Further, the CC50 in data set [1] lay within 500 to 2000 nM.

Turning to `COC(=O)c1ccc(C(=O)NCc2cccc([N+](=O)[O-])c2)c(O)c1O` [Compound 11, methyl 4-(3-nitrobenzylcarbamoyl)-2,3-dihydroxybenzoate], the half-maximal effective concentration (EC50) in the data set on HIV was < 50 nM; with WT it was < 50 nM; in data set [2], < 50 nM; in data set [3] it was 50 to 500 nM; in data set [4], < 50 nM; in data set [5] it was < 50 nM. Moreover, on HIV-1 integrase (setting [6]), the IC50 is < 50 nM. Moreover, the CC50 in data set [1] lay in the range of 500 to 2000 nM.

`COC(=O)c1ccc(C(=O)NCc2ccc([N+](=O)[O-])cc2)c(O)c1O` [Compound 12, methyl 4-(4-nitrobenzylcarbamoyl)-2,3-dihydroxybenzoate]: the EC50 with HIV is 50 to 500 nM. Further, the IC50 at HIV-1 integrase (setting [6]) was in the range of 50 to 500 nM. Further, in data set [1], the CC50 was in the range of 500 to 2000 nM.

Consider `COC(=O)c1ccc(C(=O)NCc2ccccc2C(F)(F)F)c(O)c1O` [Compound 13, methyl 4-(2-(trifluoromethyl)benzylcarbamoyl)-2,3-dihydroxybenzoate], for which, in the data set with HIV, the EC50 was in the range of 50 to 500 nM. In addition, at HIV-1 integrase (setting [6]), the IC50 was 50 to 500 nM. Further, in data set [1], the CC50 lay in the range of 500 to 2000 nM.

`COC(=O)c1ccc(C(=O)NCc2cccc(C(F)(F)F)c2)c(O)c1O` [Compound 14, methyl 4-(3-(trifluoromethyl)benzylcarbamoyl)-2,3-dihydroxybenzoate]: the EC50 in the data set with HIV was in the range of 500 to 2000 nM. For the same molecule, at HIV-1 integrase (setting [6]), the IC50 lay within 50 to 500 nM. This molecule also came in with a CC50 in data set [1] of 500 to 2000 nM.

For `COC(=O)c1ccc(C(=O)NCc2ccc(C(F)(F)F)cc2)c(O)c1O` [Compound 15, methyl 4-(4-(trifluoromethyl)benzylcarbamoyl)-2,3-dihydroxybenzoate], in the data set with HIV, the EC50 fell in the range of 500 to 2000 nM. Moreover, the IC50 on HIV-1 integrase (setting [6]) fell in the range of 500 to 2000 nM. Further, the CC50 in data set [1] fell in the range of 500 to 2000 nM.

Consider `COC(=O)c1ccc(C(=O)NCc2ccccn2)c(O)c1O` [Compound 16, methyl 4-((pyridin-2-yl)methylcarbamoyl)-2,3-dihydroxybenzoate], for which the EC50 (in the data set on HIV; in the data set on WT; in data set [2]; in data set [3]; in data set [4]; in data set [5]) was 50 to 500 nM in each case. Besides, the IC50 at HIV-1 integrase (setting [6]) lay within 50 to 500 nM. The CC50 in data set [1] is > 2000 nM.

Turning to `COC(=O)c1ccc(C(=O)NCc2cccnc2)c(O)c1O` [Compound 17, methyl 4-((pyridin-3-yl)methylcarbamoyl)-2,3-dihydroxybenzoate], the EC50 with HIV lay within 50 to 500 nM. At HIV-1 integrase (setting [6]), the IC50 lay in the range of 50 to 500 nM. Moreover, the CC50 in data set [1] was > 2000 nM.

With `COC(=O)c1ccc(C(=O)NCc2ccncc2)c(O)c1O` [Compound 18, methyl 4-((pyridin-4-yl)methylcarbamoyl)-2,3-dihydroxybenzoate], in the data set on HIV, the EC50 lay in the range of 50 to 500 nM. Further, the IC50 on HIV-1 integrase (setting [6]) lay in the range of 50 to 500 nM. The CC50 in data set [1] is > 2000 nM.

As for `COC(=O)c1ccc(C(=O)N(C)Cc2ccccc2)c(O)c1O` [Compound 19, methyl 4-(N-benzyl-N-methylcarbamoyl)-2,3-dihydroxybenzoate], the EC50 in the data set on HIV was > 2000 nM. Also, the IC50 on HIV-1 integrase (setting [6]) is > 2000 nM. Further, the CC50 in data set [1] was > 2000 nM.

Take `COC(=O)c1ccc(C(=O)Nc2ccccc2)c(O)c1O` [Compound 20, methyl 4-(phenylcarbamoyl)-2,3-dihydroxybenzoate]: the half-maximal effective concentration (EC50) (in the data set with HIV; with WT; in data set [2]; in data set [3]; in data set [4]; in data set [5]) was < 50 nM in each case. Besides, the 50% inhibitory concentration (IC50) at HIV-1 integrase (setting [6]) was < 50 nM. The molecule also came in with a cytotoxic concentration (CC50) in data set [1] of 500 to 2000 nM.

Take `COC(=O)c1ccc2c(=O)n(Cc3ccccc3)c(=O)oc2c1O` [Compound 21, 3-benzyl-8-hydroxy-2,4-dioxo-3,4-dihydro-2H-benzo[e][1,3]oxazine-7-carboxylic acid methyl ester]: the EC50 (in the data set on HIV; in the data set on WT; in data set [2]; in data set [3]; in data set [4]; in data set [5]) was 50 to 500 nM in each case. Also, the “activity in the cellular assay” value with HIV (result in words) is “maintains activity”. Besides, the IC50 at HIV-1 integrase is 50 to 500 nM. Further, the “activity in the enzymatic assay” value at HIV-1 integrase (result in words) is “maintains activity”. The cytotoxic concentration (CC50) in data set [1] is > 2000 nM.

Regarding `CC(C)Oc1ccc(Cc2ccccc2)cc1C(=O)CC(=O)C(=O)O` [DKA, reference compound], the EC50 is 50 to 500 nM with HIV; 50 to 500 nM in the data set with WT; 50 to 500 nM in data set [2]; 50 to 500 nM in data set [3]; < 50 nM in data set [4]; 50 to 500 nM in data set [5]. At HIV-1 integrase (setting [6]), the concentration for half-maximal inhibition (IC50) lay in the range of 50 to 500 nM. Also, the CC50 in data set [1] was > 2000 nM.

Turning to `Cc1ccnc2c1NC(=O)c1cccnc1N2C1CC1` [NVP, Nevirapine, reference compound], the EC50 with HIV was 50 to 500 nM; in the data set with WT it was 50 to 500 nM; in data set [2], > 2000 nM; in data set [3], > 2000 nM; in data set [4], > 2000 nM; in data set [5], 50 to 500 nM. Further, in data set [1], the CC50 was > 2000 nM.
